# Test results taken from patent US8372967B2, “Compounds and methods for modulating expression of GCCR” (Isis Pharmaceuticals, Inc., priority 2006, dated 2013).
# Strand notation (5' to 3'): a small letter for the sugar, then the base; units joined by * are phosphorothioate-linked, units joined directly phosphodiester-linked; [ ] holds rarer units or linkages, { } end groups; capitals alone tell only the bases. e = 2'-O-(2-methoxyethyl) (MOE); [5mC] = 5-methylcytosine; d = 2'-deoxy (DNA)
# Columns and labels:
# Type in all cases: in vivo, mouse
# [1] = Triglyceride, cholesterol and glucose levels, pre-bleed and post-bleed, GCGR study (Table 34); design: Triglyceride (TRIG) Pre-Bleed / Triglyceride (TRIG) Post-Bleed / Cholesterol (CHOL) Pre-Bleed / Cholesterol (CHOL) Post-Bleed / Glucose Pre-Bleed / Glucose Post-Bleed: unit not given here; conditions: for Cholesterol (CHOL) Pre-Bleed / Triglyceride (TRIG) Pre-Bleed: pre-treatment bleed; for Cholesterol (CHOL) Post-Bleed / Triglyceride (TRIG) Post-Bleed: post-treatment bleed
# [2] = Total and full-length antisense compound concentrations in liver and kidney, GCGR study (Table 42); conditions: 48 h after single i.p. dose
# Experimental: (§1) Eight-week old male C57/BL6 mice (Jackson Laboratory, Bar Harbor, Me.) were administered a single dose of GCGR oligonucleotide by intraperitoneal injection at a concentration of […]. Each dose group consisted of four animals. Shown in Table 31 are the sequences, motifs and conjugates of the GCGR antisense compounds used in this study. Bolded residues indicate 2′-O-methoxyethyl (2′-MOE) moieties. All compounds comprise phosphorothioate internucleoside linkages throughout and each cytosine is replaced with 5-methylcytosine. ISIS 386626, ISIS 386627 and ISIS 386628 further comprise a C16 conjugate group attached to the 2′-O position of the sugar via a diamide linkage (2′-OCH2C(═O)N(H)(CH2)4N(H)C(═O)—(CH2)15CH3). GCGR antisense compounds target published GCGR sequences, including Genbank® Accession No. BC031885.1 (SEQ ID NO: 7).
# (§2) Mice were sacrificed 48 hours following injection to determine serum transaminase levels (Table 32); liver, white adipose tissue (WAT), spleen and kidney weight (Table 33); cholesterol, triglyceride and glucose levels (Table 34); GCGR mRNA levels (Tables 35-41); and full-length and total oligonucleotide concentration in liver and kidney (Table 42). Endpoints were assessed using methods described herein and well known to those of ordinary skill in the art. Data is included from a pre-treatment bleed (Pre-Bleed) and post-treatment bleed (Post-Bleed).
# Treatment with the 2-10-2 MOE gapmers led to a significant dose-dependent decrease in GCGR mRNA expression. […] To determine whether the observed increase in efficiency with the short antisense compounds is due to an increase in antisense compound accumulation, full-length and total antisense compound concentration in the liver and kidney were determined.
# [3] = Organ weights: liver, WAT, spleen, kidney, GCGR study (Table 33); conditions: 48 h
# Experimental: as §1, §2
# GCGR mRNA = GCGR mRNA levels in liver, C57/BL6 mice, single i.p. dose (Tables 35-41)
# Experimental: Prior to quantitative PCR analysis, primer-probe sets specific to the target gene being measured were evaluated for their ability to be “multiplexed” with a GAPDH amplification reaction. After isolation the RNA is subjected to sequential reverse transcriptase (RT) reaction and real-time PCR, both of which are performed in the same well. RT and PCR reagents were obtained from Invitrogen Life Technologies (Carlsbad, Calif.). […] The RT reaction was carried out by incubation for 30 minutes at 48° C. Following a 10 minute incubation at 95° C. to activate the PLATIN 9M® Taq, 40 cycles of a two-step PCR protocol were carried out: 95° C. for 15 seconds (denaturation) followed by 60° C. for 1.5 minutes (annealing/extension).
# 170 μL of RiboGreen® working reagent (RiboGreen® reagent diluted 1:350 in 10 mM Tris-HCl, 1 mM EDTA, pH 7.5) was pipetted into a 96-well plate containing 30 μL purified cellular RNA. The plate was read in a CytoFluor® 4000 (PE Applied Biosystems) with excitation at 485 nm and emission at 530 nm.
# as §1, §2
# To determine whether the phenotypic changes shown above correlated with a decrease in GCGR mRNA, treated animals were evaluated for levels of target mRNA in liver by real time PCR according to methods described herein. Tables 35 to 41 show results from direct comparisons of the antisense compounds targeting GCGR nucleic acid for their effect on target expression. Results are expressed as percent of saline control.
# [4] = ALT & AST levels and toxic effects, GCGR study (Table 32); conditions: C57/BL6 mice, pre-treatment bleed
# Experimental: as §1, §2
substance,measurement,setting,value
148364 (antisense eT*eG*e[5mC]*eA*e[5mC]*dT*dT*dT*dG*dT*dG*dG*dT*dA*d[5mC]*e[5mC]*eA*eA*eG*eG) [compound 148364],Cholesterol (CHOL) Pre-Bleed,[1]; 6.25 mg/kg group,86
same,Triglyceride (TRIG) Pre-Bleed,[1]; 6.25 mg/kg group,86
same,Cholesterol (CHOL) Post-Bleed,[1]; 6.25 mg/kg single i.p.,89
same,Triglyceride (TRIG) Post-Bleed,[1]; 6.25 mg/kg single i.p.,162
same,Cholesterol (CHOL) Pre-Bleed,[1]; 12.5 mg/kg group,85
same,Triglyceride (TRIG) Pre-Bleed,[1]; 12.5 mg/kg group,106
same,Cholesterol (CHOL) Post-Bleed,[1]; 12.5 mg/kg single i.p.,89
same,Triglyceride (TRIG) Post-Bleed,[1]; 12.5 mg/kg single i.p.,179
same,Cholesterol (CHOL) Pre-Bleed,[1]; 25 mg/kg group,83
same,Triglyceride (TRIG) Pre-Bleed,[1]; 25 mg/kg group,115
same,Cholesterol (CHOL) Post-Bleed,[1]; 25 mg/kg single i.p.,96
same,Triglyceride (TRIG) Post-Bleed,[1]; 25 mg/kg single i.p.,200
same,Cholesterol (CHOL) Pre-Bleed,[1]; 50 mg/kg group,81
same,Triglyceride (TRIG) Pre-Bleed,[1]; 50 mg/kg group,110
same,Cholesterol (CHOL) Post-Bleed,[1]; 50 mg/kg single i.p.,94
same,Triglyceride (TRIG) Post-Bleed,[1]; 50 mg/kg single i.p.,177
same,Full-length Antisense Compound Concentration Kidney,[2]; kidney,58 µg/g
same,Total Antisense Compound Concentration Kidney,[2]; kidney,90 µg/g
same,Full-length Antisense Compound Concentration Liver,[2]; liver,46 µg/g
same,Total Antisense Compound Concentration Liver,[2]; liver,54 µg/g
same,Organ Weights: Kidney,[3]; 6.25 mg/kg single i.p.,104 % saline control
same,Organ Weights: Liver,[3]; 6.25 mg/kg single i.p.,101 % saline control
same,Organ Weights: Spleen,[3]; 6.25 mg/kg single i.p.,113 % saline control
same,Organ Weights: WAT,[3]; 6.25 mg/kg single i.p.,89 % saline control
same,Organ Weights: Kidney,[3]; 12.5 mg/kg single i.p.,108 % saline control
same,Organ Weights: Liver,[3]; 12.5 mg/kg single i.p.,100 % saline control
same,Organ Weights: Spleen,[3]; 12.5 mg/kg single i.p.,96 % saline control
same,Organ Weights: WAT,[3]; 12.5 mg/kg single i.p.,84 % saline control
same,Organ Weights: Kidney,[3]; 25 mg/kg single i.p.,112 % saline control
same,Organ Weights: Liver,[3]; 25 mg/kg single i.p.,103 % saline control
same,Organ Weights: Spleen,[3]; 25 mg/kg single i.p.,115 % saline control
same,Organ Weights: WAT,[3]; 25 mg/kg single i.p.,75 % saline control
same,Organ Weights: Kidney,[3]; 50 mg/kg single i.p.,108 % saline control
same,Organ Weights: Liver,[3]; 50 mg/kg single i.p.,103 % saline control
same,Organ Weights: Spleen,[3]; 50 mg/kg single i.p.,123 % saline control
same,Organ Weights: WAT,[3]; 50 mg/kg single i.p.,80 % saline control
same,GCGR mRNA levels,"GCGR mRNA; 6.25 mg/kg, Table 35 comparison ISIS 148364 & ISIS 386626",62% of saline control
same,GCGR mRNA levels,"GCGR mRNA; 6.25 mg/kg, Table 36 comparison ISIS 148364 & ISIS 386627",86% of saline control
same,GCGR mRNA levels,"GCGR mRNA; 6.25 mg/kg, Table 37 comparison ISIS 148364 & ISIS 386593",86% of saline control
same,GCGR mRNA levels,"GCGR mRNA; 6.25 mg/kg, Table 38 comparison ISIS 148364 & ISIS 386628",101% of saline control
same,GCGR mRNA levels,"GCGR mRNA; 6.25 mg/kg, Table 39 comparison ISIS 148364 & ISIS 386594",96% of saline control
same,GCGR mRNA levels,"GCGR mRNA; 12.5 mg/kg, Table 35 comparison ISIS 148364 & ISIS 386626",87% of saline control
same,GCGR mRNA levels,"GCGR mRNA; 12.5 mg/kg, Table 36 comparison ISIS 148364 & ISIS 386627",105% of saline control
same,GCGR mRNA levels,"GCGR mRNA; 12.5 mg/kg, Table 37 comparison ISIS 148364 & ISIS 386593",105% of saline control
same,GCGR mRNA levels,"GCGR mRNA; 12.5 mg/kg, Table 38 comparison ISIS 148364 & ISIS 386628",98% of saline control
same,GCGR mRNA levels,"GCGR mRNA; 12.5 mg/kg, Table 39 comparison ISIS 148364 & ISIS 386594",102% of saline control
same,GCGR mRNA levels,"GCGR mRNA; 25 mg/kg, Table 35 comparison ISIS 148364 & ISIS 386626",79% of saline control
same,GCGR mRNA levels,"GCGR mRNA; 25 mg/kg, Table 36 comparison ISIS 148364 & ISIS 386627",87% of saline control
same,GCGR mRNA levels,"GCGR mRNA; 25 mg/kg, Table 37 comparison ISIS 148364 & ISIS 386593",74% of saline control
same,GCGR mRNA levels,"GCGR mRNA; 25 mg/kg, Table 38 comparison ISIS 148364 & ISIS 386628",77% of saline control
same,GCGR mRNA levels,"GCGR mRNA; 25 mg/kg, Table 39 comparison ISIS 148364 & ISIS 386594",98% of saline control
same,GCGR mRNA levels,"GCGR mRNA; 50 mg/kg, Table 35 comparison ISIS 148364 & ISIS 386626",36% of saline control
same,GCGR mRNA levels,"GCGR mRNA; 50 mg/kg, Table 36 comparison ISIS 148364 & ISIS 386627",63% of saline control
same,GCGR mRNA levels,"GCGR mRNA; 50 mg/kg, Table 37 comparison ISIS 148364 & ISIS 386593",56% of saline control
same,GCGR mRNA levels,"GCGR mRNA; 50 mg/kg, Table 38 comparison ISIS 148364 & ISIS 386628",42% of saline control
same,GCGR mRNA levels,"GCGR mRNA; 50 mg/kg, Table 39 comparison ISIS 148364 & ISIS 386594",59% of saline control
same,ALT Pre-Bleed,[4]; dose group 6.25 mg/kg,28 IU/L
same,AST Pre-Bleed,[4]; dose group 6.25 mg/kg,47 IU/L
same,ALT Pre-Bleed,[4]; dose group 12.5 mg/kg,23 IU/L
same,AST Pre-Bleed,[4]; dose group 12.5 mg/kg,44 IU/L
same,ALT Pre-Bleed,[4]; dose group 25 mg/kg,26 IU/L
same,AST Pre-Bleed,[4]; dose group 25 mg/kg,42 IU/L
same,ALT Pre-Bleed,[4]; dose group 50 mg/kg,24 IU/L
same,AST Pre-Bleed,[4]; dose group 50 mg/kg,40 IU/L
